Reference: patent publication US9221796B2, “Selective NR2B antagonists” (BRISTOL-MYERS SQUIBB COMPANY, priority 2014, dated 2015)

What follows are compounds tested against NR2B-subtype NMDA receptors (Rattus norvegicus (Rat), UniProt P35439+Q00960) (assay: Radioligand binding assay (3H Ro 25-6981 competition, forebrain membranes)). Settings: 3H Ro 25-6981 (4 nM), read-out: NR2B Binding Ki.
NR2B-subtype NMDA receptors, sequence (Q00960 27-1482, other chains not shown): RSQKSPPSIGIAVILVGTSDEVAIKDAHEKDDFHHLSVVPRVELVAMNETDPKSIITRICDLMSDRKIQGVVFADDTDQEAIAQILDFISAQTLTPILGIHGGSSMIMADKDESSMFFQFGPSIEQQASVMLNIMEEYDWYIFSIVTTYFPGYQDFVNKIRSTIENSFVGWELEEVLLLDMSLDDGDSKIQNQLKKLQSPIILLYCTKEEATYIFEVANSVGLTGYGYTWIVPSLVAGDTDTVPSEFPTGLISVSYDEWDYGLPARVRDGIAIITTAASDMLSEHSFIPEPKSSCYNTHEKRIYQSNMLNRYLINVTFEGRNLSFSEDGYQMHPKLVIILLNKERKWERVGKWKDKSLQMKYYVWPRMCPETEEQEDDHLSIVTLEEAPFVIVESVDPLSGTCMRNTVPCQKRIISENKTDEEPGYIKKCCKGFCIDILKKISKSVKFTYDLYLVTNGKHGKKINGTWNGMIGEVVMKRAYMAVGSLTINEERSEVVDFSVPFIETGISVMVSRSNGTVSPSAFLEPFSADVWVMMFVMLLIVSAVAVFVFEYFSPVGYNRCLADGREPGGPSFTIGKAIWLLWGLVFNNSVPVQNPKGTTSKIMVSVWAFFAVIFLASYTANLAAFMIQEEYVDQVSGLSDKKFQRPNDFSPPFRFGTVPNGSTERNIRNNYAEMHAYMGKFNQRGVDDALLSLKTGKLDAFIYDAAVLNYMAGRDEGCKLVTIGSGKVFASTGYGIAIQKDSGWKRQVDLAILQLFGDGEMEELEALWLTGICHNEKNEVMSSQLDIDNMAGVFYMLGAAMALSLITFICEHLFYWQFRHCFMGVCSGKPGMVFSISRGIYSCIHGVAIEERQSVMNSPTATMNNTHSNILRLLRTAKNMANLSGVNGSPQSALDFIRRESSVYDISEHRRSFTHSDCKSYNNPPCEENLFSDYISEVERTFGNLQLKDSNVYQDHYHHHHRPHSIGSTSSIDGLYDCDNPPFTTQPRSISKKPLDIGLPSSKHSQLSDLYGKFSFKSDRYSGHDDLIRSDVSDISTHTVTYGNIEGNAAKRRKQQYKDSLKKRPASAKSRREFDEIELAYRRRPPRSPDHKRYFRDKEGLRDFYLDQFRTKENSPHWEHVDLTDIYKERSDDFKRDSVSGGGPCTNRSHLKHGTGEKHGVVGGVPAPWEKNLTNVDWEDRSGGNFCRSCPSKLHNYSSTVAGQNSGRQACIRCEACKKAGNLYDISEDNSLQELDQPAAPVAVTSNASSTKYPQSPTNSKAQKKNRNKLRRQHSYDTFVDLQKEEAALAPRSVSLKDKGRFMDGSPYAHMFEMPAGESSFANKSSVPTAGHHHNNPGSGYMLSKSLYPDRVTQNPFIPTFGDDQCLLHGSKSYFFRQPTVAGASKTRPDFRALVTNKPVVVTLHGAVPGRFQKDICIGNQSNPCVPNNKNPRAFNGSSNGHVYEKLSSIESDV
How it was run: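 Rat forebrain membranes competed against [3H]Ro 25-6981 for 1 hr at room temperature, then filtered onto PEI-treated GF/B plates and counted by scintillation. CPM converted to % inhibition, concentration-response curves fitted, Ki derived from at least two experiments.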
`Cc1ccc(CN2CC[C@@H](N3CC[C@@H](c4ccc(O)cc4)[C@H](F)C3)C2=O)cc1F` [Example 47, P-3, (R)-3-((3S,4S)-3-fluoro-4-(4-hydroxyphenyl)piperidin-1-yl)-1-(3-fluoro-4-methylbenzyl)pyrrolidin-2-one] was tested, and the Ki was 3.8 nM.
`Cc1ccc(CN2CC[C@@H](N3CC[C@H](c4ccc(O)cc4)[C@@H](F)C3)C2=O)cc1F` [Example 47, P-4, (R)-3-((3R,4R)-3-fluoro-4-(4-hydroxyphenyl)piperidin-1-yl)-1-(3-fluoro-4-methylbenzyl)pyrrolidin-2-one] gave a Ki of 3.4 nM.
Compound `O=C1[C@@H](N2CC[C@H](c3ccc(O)cc3)[C@@H](F)C2)CCN1Cc1ccc(F)cc1` [Example 48, P-2] has a Ki of 1700 nM.
For `O=C1[C@H](N2CC[C@@H](c3ccc(O)cc3)[C@H](F)C2)CCN1Cc1ccc(F)cc1` [Example 48, P-3], the Ki was 11 nM.
Compound `O=C1[C@H](N2CC[C@H](c3ccc(O)cc3)[C@@H](F)C2)CCN1Cc1ccc(F)cc1` [Example 48, P-4] has a Ki of 13 nM.
`Cc1ccc(N2CC[C@H](N3CC[C@H](c4ccc(O)cc4)[C@@H](F)C3)C2=O)cc1F` [Example 49, P-1, (S)-3-((3R,4R)-3-fluoro-4-(4-hydroxyphenyl)piperidin-1-yl)-1-(3-fluoro-4-methylphenyl)pyrrolidin-2-one] showed a Ki of 420 nM.
`Cc1ccc(N2CC[C@@H](N3CC[C@H](c4ccc(O)cc4)[C@@H](F)C3)C2=O)cc1F` [Example 49, P-2, (R)-3-((3R,4R)-3-fluoro-4-(4-hydroxyphenyl)piperidin-1-yl)-1-(3-fluoro-4-methylphenyl)pyrrolidin-2-one] showed a Ki of 73 nM.
`C[C@@H](c1ccc(F)cc1)N1CC[C@H](N2CC[C@H](c3ccc(O)cc3)[C@@H](F)C2)C1=O` [Example 50, P-1, (S)-3-((3R,4R)-3-Fluoro-4-(4-hydroxyphenyl)piperidin-1-yl)-1-((S)-1-(4-fluorophenyl)-ethyl)pyrrolidin-2-one] was tested, and the Ki was no less than 5000 nM.
`C[C@@H](c1ccc(F)cc1)N1CC[C@@H](N2CC[C@H](c3ccc(O)cc3)[C@@H](F)C2)C1=O` [Example 50, P-2, (R)-3-((3R,4R)-3-fluoro-4-(4-hydroxyphenyl)piperidin-1-yl)-1-((S)-1-(4-fluorophenyl)ethyl)pyrrolidin-2-one] gave a Ki of 890 nM.
Compound `C[C@@H](c1ccc(F)cc1)N1CC[C@H](N2CC[C@@H](c3ccc(O)cc3)[C@H](F)C2)C1=O` [Example 50, P-3, (S)-3-((3S,4S)-3-Fluoro-4-(4-hydroxyphenyl)piperidin-1-yl)-1-((S)-1-(4-fluorophenyl)ethyl)pyrrolidin-2-one] has a Ki of no less than 5000 nM.
Work on `C[C@@H](c1ccc(F)cc1)N1CC[C@@H](N2CC[C@@H](c3ccc(O)cc3)[C@H](F)C2)C1=O` [Example 50, P-4, (R)-3-((3S,4S)-3-fluoro-4-(4-hydroxyphenyl)piperidin-1-yl)-1-((S)-1-(4-fluorophenyl)-ethyl)pyrrolidin-2-one] yielded a Ki of 1300 nM.
Work on `O=C1[C@@H](N2CC[C@@H](c3ccc(O)cc3)[C@H](F)C2)CCN1Cc1ccccc1` [Example 57, (S)-1-Benzyl-3-((3S,4S)-3-fluoro-4-(4-hydroxyphenyl)piperidin-1-yl)pyrrolidin-2-one] yielded a Ki of 490 nM.
`O=C1[C@H](N2CC[C@@H](c3ccc(O)cc3)[C@H](F)C2)CCN1Cc1ccccc1` [Example 58, (R)-1-Benzyl-3-((3S,4S)-3-fluoro-4-(4-hydroxyphenyl)piperidin-1-yl)pyrrolidin-2-one] was tested, and the Ki was 8.7 nM.
In the case of `Cc1ccccc1CN1CCC(N2CC[C@@H](c3ccc(O)cc3)[C@H](F)C2)C1=O` (stereo partly drawn) [Example 59, 3-((3S,4S)-3-Fluoro-4-(4-hydroxyphenyl)piperidin-1-yl)-1-(2-methylbenzyl)pyrrolidin-2-one], the Ki is reported as 81 nM.
Work on `Cc1cccc(CN2CCC(N3CC[C@@H](c4ccc(O)cc4)[C@H](F)C3)C2=O)c1` (stereo partly drawn) [Example 60, 3-((3S,4S)-3-Fluoro-4-(4-hydroxyphenyl)piperidin-1-yl)-1-(3-methylbenzyl)pyrrolidin-2-one] yielded a Ki of 110 nM.
